# From US7531565B2, “Imidazolidin-2-one derivatives as selective androgen receptor modulators (SARMS)” (Janssen Pharmaceutica, N.V., priority 2004, dated 2009)
# Tests used:
# [1] = target: T1, androgen receptor (Rattus norvegicus, UniProt P15207); assay: Androgen receptor binding using rat ventral prostate cytosol; set-up: Male Sprague Dawley or Wistar rats (Charles River, 200-300 g) were used for each preparation; from tissue; host or cells: ventral prostate cytosol of castrated male Sprague Dawley or Wistar rats
# T1 sequence (P15207 1-902): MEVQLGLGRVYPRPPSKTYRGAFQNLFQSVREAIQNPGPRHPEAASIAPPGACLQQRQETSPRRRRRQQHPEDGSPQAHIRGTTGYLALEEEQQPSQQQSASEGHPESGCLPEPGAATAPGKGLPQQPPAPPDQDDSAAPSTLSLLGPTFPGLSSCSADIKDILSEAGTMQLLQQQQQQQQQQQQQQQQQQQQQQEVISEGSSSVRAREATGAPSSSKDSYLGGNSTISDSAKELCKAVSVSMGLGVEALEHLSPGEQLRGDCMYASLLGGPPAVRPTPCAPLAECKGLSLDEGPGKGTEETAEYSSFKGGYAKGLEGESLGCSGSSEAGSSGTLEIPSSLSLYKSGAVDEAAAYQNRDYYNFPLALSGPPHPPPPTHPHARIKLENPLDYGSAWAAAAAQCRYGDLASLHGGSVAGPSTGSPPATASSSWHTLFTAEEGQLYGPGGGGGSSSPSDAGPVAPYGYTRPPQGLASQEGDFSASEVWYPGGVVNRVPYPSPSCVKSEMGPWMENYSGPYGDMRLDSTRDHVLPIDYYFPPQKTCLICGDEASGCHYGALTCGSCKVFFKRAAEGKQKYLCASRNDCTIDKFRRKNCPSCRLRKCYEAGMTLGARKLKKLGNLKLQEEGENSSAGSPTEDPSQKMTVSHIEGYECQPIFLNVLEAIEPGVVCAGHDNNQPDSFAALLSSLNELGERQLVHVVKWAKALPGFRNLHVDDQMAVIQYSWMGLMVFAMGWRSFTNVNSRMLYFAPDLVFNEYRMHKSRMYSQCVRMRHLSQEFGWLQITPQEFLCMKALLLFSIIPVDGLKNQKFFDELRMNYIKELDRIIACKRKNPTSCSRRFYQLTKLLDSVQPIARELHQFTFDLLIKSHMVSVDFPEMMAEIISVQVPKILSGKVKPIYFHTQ
# [2] = test system: castrated male Sprague Dawley rats; assay: Ventral prostate and seminal vesicle weight in vivo assay; set-up: species or system rat; key: A test compound was said to be “active” if the non weight adjusted prostate weight was ≦60 mg or ≧84 mg; they are listed herein as “inactive” as they did not meet the specified criteria defined above; details: immature castrated rats, once daily for five days, usually orally 40 mg/kg, with testosterone propionate 2 mg/kg s.c.
# Description: Immature (approximately 50 g) castrated male Sprague Dawley rats (Charles River) were treated once daily for five days with test compound (usually given orally at 40 mg/kg in a volume of 0.3 mL, in 30% cyclodextrin or 0.5% methylcellulose vehicle) and with testosterone propionate (given subcutaneously by injection at the nape of the neck at 2 mg/kg, in a volume of 0.1 mL in sesame oil). On the sixth day, the rats were euthanized by asphyxiation in carbon dioxide. Ventral prosatates and seminal vesicles were removed and their wet weights determined. Test compound activity was determined as the percent inhibition of testosterone-enhanced tissue weights, with a vehicle-treated control group set to zero percent and a testosterone alone-treated control group set to 100%.
# A test compound was said to be “active” if the non weight adjusted prostate weight was ≦60 mg or ≧84 mg.
# [3] = target: T1, androgen receptor; assay: L929 androgen receptor functional assay, adenovirus transduction; format: cell-based; set-up: expressed in transfected cells; details: for % Activition @ 3 μM: agonist testing (no R1881), luciferase
# Description: L929 cells were plated in 96-well plates at 20,000 cells per well, in DMEM/F12 (GIBCO) containing 10% (v/v) charcoal-treated fetal bovine serum (Hyclone) and lacking phenol red. The plates were then incubated overnight at 37° C. in 5% (v/v) humidified CO2.
# Test compound dilutions were prepared in 100% (v/v) DMSO, if necessary. Each dilution was made to 1250× the final desired assay concentration. First, 2 mL of DMEM/F12 lacking phenol red was pipetted into the wells of a 2-mL 96-well assay block. Next, 4 μL of the 1250× test compound dilutions were pipetted into each well of the assay block. The mixtures within the well were then carefully mixed by pipette.
# In a 15 mL or 50 mL sterile centrifuge tube, a 2.5 nM (2.5×) dilution of R1881 (methyl-trienolone) in DMEM/F12 lacking phenol red was prepared. In a second 15 mL or 50 mL centrifuge tube a solution containing an equal volume of DMEM to the first and an equal volume of 100% (v/v) DMSO to the volume of R1881 used in the first tube was prepared.
# In a 15 mL or 50 mL sterile centrifuge tube, a dilution in DMEM/F12 of the adenovirus AdEasy+rAR at an moi of 1:500 per well was prepared. The medium was removed from the 96-well plates by inversion and dried, inverted, very briefly. As soon as possible after medium removal, 40 μL of the diluted unlabeled test compound was added to each well, in duplicate. To each well designated for antagonist testing was added 40 μL of the 2.5 nM R1881 dilution to the wells for antagonist testing. To each well designated for agonist testing was added 40 μL of the DMSO dilution. Then 20 μL of the diluted adenovirus were added to all wells. The plates were incubated for 48 hours at 37° C. in 5% (v/v) humidified CO2.
# To each well was added 100 μL of Steady-Glo luciferase assay substrate (Promega) and the plates were placed on a rotary shaker for 1 min. The plates were then incubated at room temperature in the dark for one hour. The contents of each well were then transferred to a white microtiter plate (Packard) and read on a Luminoskan Ascent (Thermo Lab Systems).
# L929 AR percent activity was determined by testing dilutions of the test compound using a concentration of 3000 nM unless otherwise noted. L929 percent inhibition was determined by testing dilutions of the test compound using a concentration of 3000 nM. EC50s and IC50s were determined by testing serial dilutions of the test compound (usually duplicate ten half-log dilutions starting at 10 μM). Luciferase activity per well were measured and EC50s and IC50s determined by linear regression.
# Representative compounds of the present invention were tested for functional activity at the androgen receptor according to the procedure described above with results as listed in Table 4.
# [4] = 3 μM, L929 cells, antagonist testing with R1881, luciferase
SMILES,% Inhibition @ 3 μM [1],active / inactive by non weight adjusted prostate weight [2],"% Activition @ 3 μM ([3]; 3 μM, L929 cells)","% Inhibition @ 3 μM [3, 4]",inhibition at 3 µM [1],"inhibition at 3 µM ([3]; 3 μM, L929 cells, antagonist testing with R1881, luciferase, read-out: % Inhibition @ 3 μM)","inhibition at 3 µM ([3]; L929, read-out: % Inhibition @ 3 μM)"
CC1(C(=O)Nc2cccc(C(F)(F)F)c2)CN(c2ccc(F)cc2)C(=O)N1 (racemic) [Compound 6g],23%,inactive,0%,−12%,,,
COC(=O)C1(C)CN(c2ccc(C#N)c(C(F)(F)F)c2)C(=O)N1 (racemic) [Compound 4e],−68%,active,0%,−15%,,,
CC1(C(=O)Nc2cc(C(F)(F)F)cc(C(F)(F)F)c2)CN(c2ccc(F)cc2)C(=O)N1 (racemic) [Compound 6h],−17%,active,0%,21%,,,
COC(=O)C1(C)CN(c2ccc(OC)cc2)C(=O)N1 (racemic) [Compound 4c],−36%,inactive,2%,5%,,,
CC1(C(=O)Nc2ccc([N+](=O)[O-])c(C(F)(F)F)c2)CN(c2ccccc2)C(=O)N1 (racemic) [Compound 6e],−71%,inactive,2%,96%,,,
COC(=O)C1(C)CN(c2ccccc2)C(=O)N1 (racemic) [Compound 4b],−71%,active,0%,34%,,,
"CC1(C(=O)O)CN(c2ccc(F)cc2)C(=O)N1 (stereo not shown) [Compound 5a, 1-(4-Fluoro-phenyl)-4-methyl-2-oxo-imidazolidine-4-carboxylic acid]",,inactive,1%,,33%,15%,
CC1(C(=O)Nc2ccc(C(F)(F)F)nc2)CN(c2ccccc2)C(=O)N1 (racemic) [Compound 6j],−75%,inactive,0%,29%,,,
COC(=O)C1(C)CN(c2ccc(Cl)c(C(F)(F)F)c2)C(=O)N1 (racemic) [Compound 4d],24%,inactive,0%,1%,,,
COc1ccc(N2CC(C)(C(=O)O)NC2=O)cc1 (racemic) [Compound 5c],−21%,inactive,−5%,−14%,,,
CC1(C(=O)Nc2ccccc2)CN(c2ccccc2)C(=O)N1 (racemic) [Compound 6b],−68%,inactive,0%,54%,,,
COc1ccc(N2CC(C)(C(=O)Nc3ccc(C#N)c(C(F)(F)F)c3)NC2=O)cc1 (racemic) [Compound 6c],29%,inactive,0%,11%,,,
"CC1(C(=O)Nc2ccc(C#N)c(C(F)(F)F)c2)CN(c2ccc(F)cc2)C(=O)N1 (stereo not shown) [Compound 6a, 1-(4-Fluoro-phenyl)-4-methyl-2-oxo-imidazolidine-4-carboxylic acid (4-cyano-3-trifluoromethyl-phenyl)-amide]",,active,9%,,63%,,37%
CC1(C(=O)Nc2ccc(C#N)c(C(F)(F)F)c2)CN(c2ccccc2)C(=O)N1 (racemic) [Compound 6d],1%,inactive,0%,59%,,,
CC1(C(=O)O)CN(c2ccc(Cl)c(C(F)(F)F)c2)C(=O)N1 (racemic) [Compound 5d],28%,inactive,0%,−30%,,,
CC1(C(=O)O)CN(c2ccccc2)C(=O)N1 (racemic) [Compound 5b],−110%,inactive,0%,32%,,,
